Assay results taken from US10070645B2, “N-cycloalkyl-N-{[2-(1-substitutedcycloalkyl)phenyl]methylene}-(thio)carboxamide derivatives” (BAYER CROPSCIENCE AKTIENGESELLSCHAFT, priority 2013, dated 2018).

Experiment: log P by HPLC on a reversed-phase column (C 18), EEC Directive 79/831 Annex V.A8
Assay type: physicochemical
Settings: HPLC on reversed-phase column (C 18), 40° C., 0.1% aqueous formic acid and acetonitrile, linear gradient 10% to 90% acetonitrile
Outline: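 Reversed-phase C18 HPLC at 40° C, 0.1% aqueous formic acid/acetonitrile gradient from 10% to 90% acetonitrile. log P derived from retention times by linear interpolation between unbranched alkan-2-ones (3–16 carbons) of known log P.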

logP | SMILES
4.30 | Cn1nc(C(F)F)c(C(=O)N(Cc2cc(Cl)ccc2C2(C(F)(F)F)CC2)C2CC2)c1Cl [I.164]
4.59 | Cn1nc(C(F)F)c(C(=O)N(Cc2cc(C3CC3)ccc2C2(C)CC2(Cl)Cl)C2CC2)c1F (racemic) [I.169]
2.34 | Cn1nc(C(F)F)c(C(=O)N(Cc2ccccc2C2(C(F)(F)F)CC2)C2CC2)c1F [I.161]

The next lines start with the molecule.

SMILES | logP
Cn1nc(C(F)F)c(C(=O)N(Cc2c(C3(C)CC3(Cl)Cl)ccc(Cl)c2F)C2CC2)c1F (racemic) [I.176] | 4.46
Cn1nc(C(F)F)c(C(=O)N(Cc2cc(Cl)ccc2C2(C(F)(F)F)CC2)C2CC2)c1F [I.163] | 4.13
Cn1nc(C(F)F)c(C(=O)N(Cc2cc(Cl)c(Cl)cc2C2(C)CC2)C2CC2)c1Cl [I.181] | 4.93

Same assay, conditions: HPLC, reversed-phase column (C 18), 40° C., 0.1% aqueous formic acid and acetonitrile, linear gradient 10% to 90% acetonitrile

logP | SMILES
3.94 | Cn1nc(C(F)F)c(C(=O)N(Cc2cc(C3CC3)ccc2C2(C(F)F)CC2)C2CC2)c1F [I.150]
4.36 | Cc1ccc(CN(C(=O)c2c(C(F)F)nn(C)c2Cl)C2CC2)c(C2(C)CC2)c1 [I.027]
5.31 | Cc1ccc(F)cc1-c1ccc(CN(C(=O)c2c(C(F)F)nn(C)c2F)C2CC2)c(C2(C)CC2)c1 [I.042]
4.86 | CCC1(c2cc(C(F)(F)F)ccc2CN(C(=O)c2c(C(F)F)nn(C)c2Cl)C2CC2)CC1 [I.101]
3.13 | Cn1nc(C(F)F)c(C(=O)N(Cc2cc(Cl)ccc2C2(C#N)CC2)C2CC2)c1F [I.094]
3.73 | C#CC1(c2ccc(Cl)cc2CN(C(=O)c2c(C(F)F)nn(C)c2F)C2CC2)CC1 [I.090]

Second part, the molecule before the results:

SMILES | logP
Cn1nc(C(F)F)c(C(=O)N(Cc2ccc(-c3ccc4ncccc4c3)cc2C2(C)CC2)C2CC2)c1F [I.046] | 3.09
Cn1nc(C(F)F)c(C(=O)N(Cc2ccc(C3CCOCC3)cc2C2(C)CC2)C2CC2)c1F [I.047] | 3.87
Cn1nc(C(F)F)c(C(=S)N(Cc2ccc(F)cc2C2(C)CC2)C2CC2)c1F [I.023] | 4.56
C=C(C)c1ccc(C2(C)CC2)c(CN(C(=O)c2c(C(F)F)nn(C)c2F)C2CC2)c1 [I.083] | 4.67
COc1ccc(CN(C(=S)c2c(C(F)F)nn(C)c2Cl)C2CC2)c(C2(C)CC2)c1 [I.031] | 4.51

Same assay, conditions: Table 3 (amines of formula II); HPLC C 18, 40° C., 0.1% aqueous formic acid and acetonitrile

SMILES | chromatographic logP
C[Si](C)(C)C#CC1(c2ccc(Cl)cc2CNC2CC2)CC1 [II.18, N-(5-chloro-2-{1-[(trimethylsilyl)ethynyl]cyclopropyl}benzyl)cyclopropanamine] | 2.07

Same assay, conditions: reversed-phase HPLC column (C 18); HPLC, reversed-phase column (C 18), 40° C., 0.1% aqueous formic acid and acetonitrile, linear gradient 10% to 90% acetonitrile

chromatographic logP | SMILES
4.26 | Cn1nc(C(F)F)c(C(=O)N(Cc2cc(Cl)ccc2C2(C)CC2)C2CC2)c1F [I.060, N-[5-chloro-2-(1-methylcyclopropyl)benzyl]-N-cyclopropyl-3-(difluoromethyl)-5-fluoro-1-methyl-1H-pyrazole-4-carboxamide]

Same assay, conditions: reversed-phase HPLC column (C 18); Table 3 (amines of formula II); HPLC C 18, 40° C., 0.1% aqueous formic acid and acetonitrile

chromatographic logP | SMILES
2.15 | Cc1ccc(C2(CC(C)C)CC2)c(CNC2CC2)c1 [II.43, N-[2-(1-isobutylcyclopropyl)-5-methylbenzyl]cyclopropanamine]
1.43 | CC1(c2ccc(Br)cc2CNC2CC2)CC1 [II.09, N-[5-bromo-2-(1-methylcyclopropyl)benzyl]cyclopropanamine]
1.68 | Cc1cc(CNC2CC2)c(C2(C)CC2)cc1C [II.06, N-[4,5-dimethyl-2-(1-methylcyclopropyl)benzyl]cyclopropanamine]

Same assay, conditions: reversed-phase HPLC column (C 18); Table 4 (aldehydes of formula IV); HPLC C 18, 40° C., 0.1% aqueous formic acid and acetonitrile

chromatographic logP | SMILES
3.15 | CC1(c2cc(F)ccc2C=O)CC1 [IV.03, 4-fluoro-2-(1-methylcyclopropyl)benzaldehyde]
3.55 | Cc1ccc(C2(C)CC2)c(C=O)c1 [IV.12, 5-methyl-2-(1-methylcyclopropyl)benzaldehyde]
3.04 | O=Cc1cc(Cl)ccc1C1(C(F)F)CC1 [IV.20, 5-chloro-2-[1-(difluoromethyl)cyclopropyl]benzaldehyde]

Continued, molecule first:

SMILES | chromatographic logP
CC1(c2ccccc2C=O)CC1 [IV.01, 2-(1-methylcyclopropyl)benzaldehyde] | 3.02
CCC1(c2ccc(C)cc2C=O)CC1 [IV.18, 2-(1-ethylcyclopropyl)-5-methylbenzaldehyde] | 4.29
